Molecular target: T1, Androgen receptor (Homo sapiens, UniProt P10275)
T1 sequence (P10275 whole entry): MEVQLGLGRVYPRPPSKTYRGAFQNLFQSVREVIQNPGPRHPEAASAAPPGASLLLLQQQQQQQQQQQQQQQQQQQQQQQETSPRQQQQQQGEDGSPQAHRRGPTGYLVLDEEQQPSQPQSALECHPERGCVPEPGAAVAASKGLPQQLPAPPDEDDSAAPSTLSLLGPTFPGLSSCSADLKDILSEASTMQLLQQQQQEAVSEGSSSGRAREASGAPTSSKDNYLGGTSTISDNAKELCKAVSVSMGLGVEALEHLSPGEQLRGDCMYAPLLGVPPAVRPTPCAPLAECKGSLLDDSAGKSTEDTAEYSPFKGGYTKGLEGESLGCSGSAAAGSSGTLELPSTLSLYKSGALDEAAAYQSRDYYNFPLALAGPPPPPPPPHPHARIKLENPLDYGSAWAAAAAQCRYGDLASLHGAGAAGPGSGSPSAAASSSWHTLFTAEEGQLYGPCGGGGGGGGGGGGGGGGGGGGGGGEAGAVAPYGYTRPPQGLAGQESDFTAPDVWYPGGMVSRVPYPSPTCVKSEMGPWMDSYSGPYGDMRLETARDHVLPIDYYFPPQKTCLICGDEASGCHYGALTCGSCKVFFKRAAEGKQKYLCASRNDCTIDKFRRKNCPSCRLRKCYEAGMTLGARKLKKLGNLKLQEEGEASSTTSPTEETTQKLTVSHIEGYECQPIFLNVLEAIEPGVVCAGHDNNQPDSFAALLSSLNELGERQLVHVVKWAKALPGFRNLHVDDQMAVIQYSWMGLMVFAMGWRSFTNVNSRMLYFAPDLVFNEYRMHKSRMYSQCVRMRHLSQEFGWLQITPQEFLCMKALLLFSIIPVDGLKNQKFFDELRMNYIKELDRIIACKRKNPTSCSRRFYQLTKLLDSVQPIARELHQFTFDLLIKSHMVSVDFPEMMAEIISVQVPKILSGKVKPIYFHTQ
Experiment: Antagonist activity at androgen receptor in human C4-2-PSA-rl cells incubated for 24 hrs in presence of androgen R1881 by dual-glo luciferase reporter gene assay
Format: cell-based

SMILES	EC50 [µM]
Cc1noc(C)c1CSCC(=O)N1CCN(c2ccccc2)CC1	> 25
Cc1ccccc1N1CCN(C(=O)CN(C)Cc2ccccc2)CC1	> 25
Cc1ccccc1N1CCN(C(=O)C[S+]([O-])Cc2c(C)noc2C)CC1 (stereo not given)	> 25
Cc1ccccc1N1CCN(C(=O)CSc2ccccc2)CC1	> 25
Cc1ccc(N2CCN(C(=O)CSCc3c(C)noc3C)CC2)cc1	> 25
Cc1ccccc1N1CCN(C(=O)COCc2c(C)noc2C)CC1	> 25
Cc1cccc(N2CCN(C(=O)CSCc3c(C)noc3C)CC2)c1	> 25
COc1ccccc1N1CCN(C(=O)CSCc2c(C)noc2C)CC1	> 25
Cc1ccccc1N1CCN(C(=O)/C=C/c2ccccc2)CC1	> 25
Cc1ccccc1N1CCN(C(=O)NCSCc2c(C)noc2C)CC1	> 25
Cc1ccccc1N1CCC(OC(=O)NCSCc2c(C)noc2C)CC1	> 25
Cc1ccc(Cl)cc1N1CCN(C(=O)[C@H]2C[C@H]2c2ccc(F)cc2)CC1	1.7
Cc1ccc(Cl)cc1N1CCN(C(=O)[C@@H]2C[C@@H]2c2ccc(F)cc2)CC1	15.2
Cc1ccc(Cl)cc1N1CCN(C(=O)C2CC2c2ccc(F)cc2)CC1 (racemic)	2.7
Cc1ccccc1N1CCN(C(=O)[C@H]2C[C@@H]2c2ccccc2)CC1 (relative stereo)	> 25
